# Data taken from patent US9266939B2, “Compositions comprising natriuretic peptides and methods of use thereof” (Alexion Pharmaceuticals, Inc., priority 2010, dated 2016).
# Where “and” joins values, the source holds several entries; their conditions need not be identical. Equal values may be shown once. Marks after values point to notes of the source that are not given here.
# Tested on: wild-type (CD-1) mice
# Assay: Daily bolus SC injection of NC2st on bone growth in wild-type (CD-1) mice
# Type: in vivo
# Procedure: The study was designed to evaluate the relationship between different doses of NC2st and the pharmacologic response on bone. The relationship was evaluated by measuring the effect of increasing doses of NC2st (SEQ ID NO: 502; as described, e.g., in Example 1) on bone growth in wild-type (WT, CD-1) mice. Bone growth response of wild-type and Fgfr3^369/+ (ACH) mice was compared.
# CD-1 mice are a standard rodent species for use in pharmacodynamic studies. Briefly, nursing mothers with fostered female pups of 13 to 16 days were obtained. At the age of 21 days, pups were weaned and randomized based on body weight into treatment groups.
# The animals received NC2st as a subcutaneous injection into the interscapular region as described in Table 11 below.
# CD-1 mice were treated at 3 weeks old at the indicated doses for 35 consecutive days, followed by necropsy 24 hours after the last injection.
# Ex vivo radiographs of whole body, rib cage, and skull were taken using a Faxitron model MX-20 DC4 under constant conditions (26 kV, 10 sec at 1×, 3× and 3× magnification, respectively). Bone measurements were performed on the radiographic images of all animals in a blinded fashion using the software Image Processing and Analysis in Java (ImageJ).
# Bone samples were cleaned of excess tissue (not scraped) and fixed. Length of femur and tibia was measured using a caliper.
# [1] = day 36, Tx-10 (10 mg/kg SC once daily)
# [2] = day 36, Tx-30 (30 mg/kg SC once daily)
# [3] = day 36, Tx-100 (100 mg/kg SC once daily)
substance,measurement,setting,value
"NC2st: Fc-CNP fusion: Strep-tag II, TEV site, human IgG-1 Fc, 16-amino acid glycine-rich linker, CNP22; SEQ ID NO: 502",treatment time after which crown-rump length in vivo differed significantly from Vehicle,Tx-30,2 weeks
same,treatment time after which tail length in vivo differed significantly from Vehicle,Tx-30,2 weeks
same,treatment time after which tibia length in vivo differed significantly from Vehicle,Tx-30,4 weeks
same,treatment time after which crown-rump length in vivo differed significantly from Vehicle,Tx-100,2 weeks
same,treatment time after which tail length in vivo differed significantly from Vehicle,Tx-100,2 weeks
same,treatment time after which tibia length in vivo differed significantly from Vehicle,Tx-100,2 weeks
same,% Δ Cervical segment (X-Ray) compared to Vehicle,[1],8.8%
same,% Δ Circularity index (X-Ray) compared to Vehicle,[1],−1.9%
same,% Δ Crown-rump length in vivo compared to Vehicle,[1],4.4%
same,% Δ Foramen magnum height compared to Vehicle,[1],1.2%
same,% Δ Foramen magnum width compared to Vehicle,[1],1.3%
same,% Δ Left Femur length compared to Vehicle,[1],3.3%
same,% Δ Left Humerus length compared to Vehicle,[1],1.6%
same,% Δ Left Tibia length compared to Vehicle,[1],2.8%
same,% Δ Left Ulna length compared to Vehicle,[1],0.71%
same,% Δ Lumbar segment (X-Ray) compared to Vehicle,[1],6.2%
same,% Δ Metatarsal bone (3rd digit) (X-Ray) compared to Vehicle,[1],5.2%
same,% Δ Naso-anal length (X-Ray) compared to Vehicle,[1],6.5%
same,% Δ Occipital-front distance (X-Ray) compared to Vehicle,[1],1.4%
same,% Δ Right Tibia length in vivo compared to Vehicle,[1],1.1%
same,% Δ Sternum length (X-Ray) compared to Vehicle,[1],6.9%
same,% Δ Tail length in vivo compared to Vehicle,[1],6.1%
same,% Δ Thoracic segment (X-Ray) compared to Vehicle,[1],11.4%
same,% Δ Total CTL segments (X-Ray) compared to Vehicle,[1],8.9%
same,Cervical segment (X-Ray),[1],9.00 mm
same,Circularity index (X-Ray),[1],0.370
same,Crown-rump length in vivo,[1],99.1 mm
same,Foramen magnum height,[1],4.13 mm
same,Foramen magnum width,[1],4.72 mm
same,Left Femur length,[1],15.6* mm
same,Left Humerus length,[1],12.4 mm
same,Left Tibia length,[1],18.5 mm
same,Left Ulna length,[1],14.1 mm
same,Lumbar segment (X-Ray),[1],20.5* mm
same,Metatarsal bone (3rd digit) (X-Ray),[1],24.5* mm
same,Naso-anal length (X-Ray),[1],115* mm
same,Occipital-front distance (X-Ray),[1],42.9 mm
same,Right Tibia length in vivo,[1],19.0 mm
same,Sternum length (X-Ray),[1],38.5* mm
same,Tail length in vivo,[1],102 mm
same,Thoracic segment (X-Ray),[1],25.5* mm
same,Total CTL segments (X-Ray),[1],55.0* mm
same,Δ Cervical segment (X-Ray) compared to Vehicle,[1],0.73 mm
same,Δ Circularity index (X-Ray) compared to Vehicle,[1],−0.007
same,Δ Crown-rump length in vivo compared to Vehicle,[1],4.2 mm
same,Δ Foramen magnum height compared to Vehicle,[1],0.05 mm
same,Δ Foramen magnum width compared to Vehicle,[1],0.06 mm
same,Δ Left Femur length compared to Vehicle,[1],0.5 mm
same,Δ Left Humerus length compared to Vehicle,[1],0.2 mm
same,Δ Left Tibia length compared to Vehicle,[1],0.5 mm
same,Δ Left Ulna length compared to Vehicle,[1],0.10 mm
same,Δ Lumbar segment (X-Ray) compared to Vehicle,[1],1.2 mm
same,Δ Metatarsal bone (3rd digit) (X-Ray) compared to Vehicle,[1],1.2 mm
same,Δ Naso-anal length (X-Ray) compared to Vehicle,[1],7.0 mm
same,Δ Occipital-front distance (X-Ray) compared to Vehicle,[1],0.6 mm
same,Δ Right Tibia length in vivo compared to Vehicle,[1],0.20 mm
same,Δ Sternum length (X-Ray) compared to Vehicle,[1],2.5 mm
same,Δ Tail length in vivo compared to Vehicle,[1],5.9 mm
same,Δ Thoracic segment (X-Ray) compared to Vehicle,[1],2.6 mm
same,Δ Total CTL segments (X-Ray) compared to Vehicle,[1],4.5 mm
same,% Δ Cervical segment (X-Ray) compared to Vehicle,[2],13.8%
same,% Δ Circularity index (X-Ray) compared to Vehicle,[2],−4.0%
same,% Δ Crown-rump length in vivo compared to Vehicle,[2],7.5%
same,% Δ Foramen magnum height compared to Vehicle,[2],0.98%
same,% Δ Foramen magnum width compared to Vehicle,[2],1.5%
same,% Δ Left Femur length compared to Vehicle,[2],6.0%
same,% Δ Left Humerus length compared to Vehicle,[2],2.5%
same,% Δ Left Tibia length compared to Vehicle,[2],5.0%
same,% Δ Left Ulna length compared to Vehicle,[2],3.6%
same,% Δ Lumbar segment (X-Ray) compared to Vehicle,[2],9.3%
same,% Δ Metatarsal bone (3rd digit) (X-Ray) compared to Vehicle,[2],6.4%
same,% Δ Naso-anal length (X-Ray) compared to Vehicle,[2],9% and 9.3%
same,% Δ Occipital-front distance (X-Ray) compared to Vehicle,[2],1.2%
same,% Δ Right Tibia length in vivo compared to Vehicle,[2],3.2%
same,% Δ Sternum length (X-Ray) compared to Vehicle,[2],10.8%
same,% Δ Tail length in vivo compared to Vehicle,[2],10.3%
same,% Δ Thoracic segment (X-Ray) compared to Vehicle,[2],14.4%
same,% Δ Total CTL segments (X-Ray) compared to Vehicle,[2],12.3%
same,Cervical segment (X-Ray),[2],9.41* mm
same,Circularity index (X-Ray),[2],0.362
same,Crown-rump length in vivo,[2],102* mm
same,Foramen magnum height,[2],4.12 mm
same,Foramen magnum width,[2],4.73 mm
same,Left Femur length,[2],16.0* mm
same,Left Humerus length,[2],12.5* mm
same,Left Tibia length,[2],18.9* mm
same,Left Ulna length,[2],14.5 mm
same,Lumbar segment (X-Ray),[2],21.1* mm
same,Metatarsal bone (3rd digit) (X-Ray),[2],24.8* mm
same,Naso-anal length (X-Ray),[2],118* mm
same,Occipital-front distance (X-Ray),[2],42.8 mm
same,Right Tibia length in vivo,[2],19.4* mm
same,Sternum length (X-Ray),[2],39.9* mm
same,Tail length in vivo,[2],106* mm
same,Thoracic segment (X-Ray),[2],26.2* mm
same,Total CTL segments (X-Ray),[2],56.7* mm
same,Δ Cervical segment (X-Ray) compared to Vehicle,[2],1.14 mm
same,Δ Circularity index (X-Ray) compared to Vehicle,[2],−0.015
same,Δ Crown-rump length in vivo compared to Vehicle,[2],7.1 mm
same,Δ Foramen magnum height compared to Vehicle,[2],0.04 mm
same,Δ Foramen magnum width compared to Vehicle,[2],0.07 mm
same,Δ Left Femur length compared to Vehicle,[2],0.9 mm
same,Δ Left Humerus length compared to Vehicle,[2],0.3 mm
same,Δ Left Tibia length compared to Vehicle,[2],0.9 mm
same,Δ Left Ulna length compared to Vehicle,[2],0.5 mm
same,Δ Lumbar segment (X-Ray) compared to Vehicle,[2],1.8 mm
same,Δ Metatarsal bone (3rd digit) (X-Ray) compared to Vehicle,[2],1.5 mm
same,Δ Naso-anal length (X-Ray) compared to Vehicle,[2],10 mm
same,Δ Occipital-front distance (X-Ray) compared to Vehicle,[2],0.5 mm
same,Δ Right Tibia length in vivo compared to Vehicle,[2],0.60 mm
same,Δ Sternum length (X-Ray) compared to Vehicle,[2],3.9 mm
same,Δ Tail length in vivo compared to Vehicle,[2],9.9 mm
same,Δ Thoracic segment (X-Ray) compared to Vehicle,[2],3.3 mm
same,Δ Total CTL segments (X-Ray) compared to Vehicle,[2],6.2 mm
same,% Δ Cervical segment (X-Ray) compared to Vehicle,[3],20.3%
same,% Δ Circularity index (X-Ray) compared to Vehicle,[3],−7.4%
same,% Δ Crown-rump length in vivo compared to Vehicle,[3],12.7%
same,% Δ Foramen magnum height compared to Vehicle,[3],2.2%
same,% Δ Foramen magnum width compared to Vehicle,[3],1.3%
same,% Δ Left Femur length compared to Vehicle,[3],10% and 9.9%
same,% Δ Left Humerus length compared to Vehicle,[3],6% and 5.7%
same,% Δ Left Tibia length compared to Vehicle,[3],7% and 7.2%
same,% Δ Left Ulna length compared to Vehicle,[3],6% and 5.7%
same,% Δ Lumbar segment (X-Ray) compared to Vehicle,[3],13.5%
same,% Δ Metatarsal bone (3rd digit) (X-Ray) compared to Vehicle,[3],12.0%
same,% Δ Naso-anal length (X-Ray) compared to Vehicle,[3],13%
same,% Δ Occipital-front distance (X-Ray) compared to Vehicle,[3],2.1%
same,% Δ Right Tibia length in vivo compared to Vehicle,[3],6.4%
same,% Δ Sternum length (X-Ray) compared to Vehicle,[3],12.5%
same,% Δ Tail length in vivo compared to Vehicle,[3],16.5%
same,% Δ Thoracic segment (X-Ray) compared to Vehicle,[3],21.0%
same,% Δ Total CTL segments (X-Ray) compared to Vehicle,[3],17.8%
same,Cervical segment (X-Ray),[3],9.95* mm
same,Circularity index (X-Ray),[3],0.349*
same,Crown-rump length in vivo,[3],107* mm
same,Foramen magnum height,[3],4.17 mm
same,Foramen magnum width,[3],4.72 mm
same,Left Femur length,[3],16.6* mm
same,Left Humerus length,[3],12.9* mm
same,Left Tibia length,[3],19.3* mm
same,Left Ulna length,[3],14.8* mm
same,Lumbar segment (X-Ray),[3],21.9* mm
same,Metatarsal bone (3rd digit) (X-Ray),[3],26.1* mm
same,Naso-anal length (X-Ray),[3],122* mm
same,Occipital-front distance (X-Ray),[3],43.2* mm
same,Right Tibia length in vivo,[3],20.0* mm
same,Sternum length (X-Ray),[3],40.5* mm
same,Tail length in vivo,[3],112* mm
same,Thoracic segment (X-Ray),[3],27.7* mm
same,Total CTL segments (X-Ray),[3],59.5* mm
same,Δ Cervical segment (X-Ray) compared to Vehicle,[3],1.68 mm
same,Δ Circularity index (X-Ray) compared to Vehicle,[3],−0.028
same,Δ Crown-rump length in vivo compared to Vehicle,[3],12.1 mm
same,Δ Foramen magnum height compared to Vehicle,[3],0.09 mm
same,Δ Foramen magnum width compared to Vehicle,[3],0.06 mm
same,Δ Left Femur length compared to Vehicle,[3],1.5 mm
same,Δ Left Humerus length compared to Vehicle,[3],0.7 mm
same,Δ Left Tibia length compared to Vehicle,[3],1.3 mm
same,Δ Left Ulna length compared to Vehicle,[3],0.8 mm
same,Δ Lumbar segment (X-Ray) compared to Vehicle,[3],2.6 mm
same,Δ Metatarsal bone (3rd digit) (X-Ray) compared to Vehicle,[3],2.8 mm
same,Δ Naso-anal length (X-Ray) compared to Vehicle,[3],14 mm
same,Δ Occipital-front distance (X-Ray) compared to Vehicle,[3],0.9 mm
same,Δ Right Tibia length in vivo compared to Vehicle,[3],1.2 mm
same,Δ Sternum length (X-Ray) compared to Vehicle,[3],4.5 mm
same,Δ Tail length in vivo compared to Vehicle,[3],15.9 mm
same,Δ Thoracic segment (X-Ray) compared to Vehicle,[3],4.8 mm
same,Δ Total CTL segments (X-Ray) compared to Vehicle,[3],9.0 mm
